# Measurements: US11365194B2, “Analgesic drug using PAC1 receptor antagonistic drug” (KAGOSHIMA UNIVERSITY, priority 2017, dated 2022)
# Key:
# [1] = tested on: pain-like behavior induced by formalin; test: Pain-like behavior induced by formalin; format: in vivo, mouse; conditions: 0.1 to 10 nmol i.t.
# Experimental: The first phase is direct action of formalin on sensory nerves (to around 10 minutes after formalin administration). In the second phase (from around 10 minutes to 60 minutes after formalin administration), hypersensitization formed in spinal dorsal horn cells during the first phase (a type of plastic phenomenon in the nervous system also called central sensitization) is a main cause, and inflammatory reaction at the site of formalin administration contributes importantly.
# [2] = target: T1, mouse PAC receptor-expressing CHO cell (PAC1/CHO cell) (Mus musculus, UniProt P70205); test: CREB phosphorylation by PACAP stimulus, Western blot, PAC1/CHO cell; format: cell-based
# T1 construct: expressed in transfected cells; host or cells: CHO cells
# T1 sequence (P70205 21-496): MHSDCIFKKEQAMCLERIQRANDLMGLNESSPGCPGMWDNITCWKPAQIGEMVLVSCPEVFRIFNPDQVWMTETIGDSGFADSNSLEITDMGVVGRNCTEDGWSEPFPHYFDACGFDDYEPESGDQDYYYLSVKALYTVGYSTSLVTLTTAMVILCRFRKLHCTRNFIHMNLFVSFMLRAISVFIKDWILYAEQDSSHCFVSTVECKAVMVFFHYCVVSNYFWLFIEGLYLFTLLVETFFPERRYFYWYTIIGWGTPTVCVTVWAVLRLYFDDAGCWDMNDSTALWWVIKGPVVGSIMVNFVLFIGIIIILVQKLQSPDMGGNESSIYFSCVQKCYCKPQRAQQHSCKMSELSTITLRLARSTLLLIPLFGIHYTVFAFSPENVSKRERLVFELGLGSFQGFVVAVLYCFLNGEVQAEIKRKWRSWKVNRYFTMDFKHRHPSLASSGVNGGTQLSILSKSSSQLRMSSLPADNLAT
# Experimental: The effect of each compound on the phosphorylation of CREB (cAMP-responsive element-binding protein) produced by a PACAP stimulus was examined by Western blot analysis using an anti-phosphorylated CREB (pCREB) antibody with a mouse PAC receptor-expressing CHO cell (PAC1/CHO cell) and a mouse VPAC1 receptor-expressing CHO cell (VPAC1/CHO cell).
# Specifically, treatment with a compound (PA-8, PA-9, compounds 2j, 20 and 3d) at 10 μM to 10 nM or a solvent therefor (VEH: 0.1% DMSO-containing phosphate buffer solution) was performed for 30 minutes, 1 nM PACAP was then added, and protein was recovered within 30 minutes after a PACAP stimulus.
# [3] = tested on: mechanical allodynia induced by spinal nerve injury; test: Spinal nerve ligation (SNL) model, i.t. administration on 14th day, mechanical allodynia; format: in vivo, mouse; conditions: 100 pmol i.t. on 14th day after operation
# Experimental: Male ddY mice (6 to 12 weeks old) were used, and the threshold to a mechanical stimulus was evaluated by the vonFrey test. Specifically, the 50% withdrawal reflex threshold (Threshold) was calculated in accordance with the method of Chaplan et al. (Chaplan et al., J. Neurosci. Meth. 53, 55-63, 1994). Each compound was dissolved in 99.7% DMSO, and then the resulting solution was diluted with an artificial cerebrospinal fluid for preparation (final concentration of DMSO was 0.2%).
# Spinal nerve ligation (SNL) models in which the fourth lumbar cord spinal nerves of male ddY (6 to 12 weeks old) were ligated with silk thread were used. The i.t. administration of a solvent (VEH: 10% DMSO-containing saline), PA-8, the compound 2j or the compound 2o (FIG. 9A), or PA-9 or the compound 3d (FIG. 9B) was performed on the 14th day after the operation. The method of causing a mechanical stimulus is the same as that of Example 5, and data were acquired for 24 hours after i.t. administration over time.
smiles,measurement,setting,value
"C=CCOc1ccc(C2CC(=O)Nc3nc(N)[nH]c(=O)c32)cc1OC (centres unmarked) [PA-8, reference compound]",effect on first phase reaction,[1],did not affect the first phase reaction
same,effect on second phase reaction,[1],suppressed the second phase reaction significantly depending on the concentration
same,suppression of CREB phosphorylation by PACAP (1 nM),"[2]; PAC1/CHO cell, compound 10 μM to 10 nM, 30 minutes before 1 nM PACAP",suppressed CREB phosphorylation by PACAP (1 nM)
same,receptor selectivity (PAC1 versus VPAC1),[2]; concluded from PAC1/CHO and VPAC1/CHO data,PAC1 receptor selective antagonistic drug
same,anti-mechanical allodynia effect,[3],suppressed the onset of mechanical allodynia significantly
